Data set [1] has as its system peripheral blood mononuclear cells (PBMC). As to the kind of experiment: Cytotoxicity (MTT) on peripheral blood mononuclear cells. The settings on record: 72 h, MTT.
Description: (§1) Cells were treated with increasing concentrations of the hybrids in triplicates, pre-diluted in DMEM + 2% FBS, and incubated for 120 h. The toxic effect of the molecules was also evaluated on human lung cancer cell lines (A549 and H460), as well as on PBMC. […] In all experiments, untreated controls, vehicle (0.2% v/v DMSO), and blanks (no added cells) were included. […] Then, 20 µL of 3.0 mM MTT saline was added and incubated for another 1.5 h. The supernatant was removed, and the MTT formazan crystals were dissolved by adding 120 µL/well of DMSO. After incubation for 1.5 h to dissolve the MTT crystals away from light and at 37 °C, the absorbance was measured at λ = 570 nm using a plate reader.
Data set [2] deals with T. cruzi amastigotes (Tulahuen C2C4-LacZ). Kind of data set: Trypanocidal activity against intracellular amastigotes (CPRG, beta-galactosidase). Format: cell-based, Trypanosoma cruzi. Here is the method: The antiparasitic activity assays used the Tulahuen C2C4-LacZ strain of the Trypanosoma cruzi parasite, being evaluated in the amastigote forms. […] Trypomastigote forms were collected from the culture supernatant between the 5th and 10th day after infection and separated from non-adherent cells by differential centrifugation. Epimastigote evolutionary form parasites were cultivated in LIT medium (Liver Infusion Tryptose), supplemented with hemin (25 mg/L) + 10% FBS, and incubated at 28 °C, performing successive passages every 6–7 days.
Non-internalized parasites were removed by three successive washes with PBS, followed by treatment with increasing concentrations of the hybrids (0.64–100 µM) in triplicates, pre-diluted in DMEM + 2% FBS. Untreated vehicle (0.2% v/v DMSO) and blank (no added parasites) controls were included in the experiment. Increasing concentrations of Benznidazole were used as the positive control. After incubation for 5 days (120 h), 30 µL of 0.5 mM chlorophenol red substrate β-galactopyranoside (CPRG) in PBS was added with 0.9% v/v of Igepal CA-630.

The subject of the next data set is A549 cells. As to the kind of experiment: Antiproliferative activity (MTT) against A549 tumor cell line. The class given is cell-based, human.
Another data set deals with LLC-MK2 (host cells). Kind of data set: Cytotoxicity (MTT) on LLC-MK2 host cells. Format: cell-based. The settings on record: 120 h, MTT. The text has this: Mammalian cells were used to evaluate the cytotoxicity of the tested compounds. […] Cells were dissociated from the monolayer by treatment with a solution containing 0.25% w/v trypsin and 0.04% EDTA.
In the next data set the test system is H460 cells. As to the kind of experiment: Antiproliferative activity (MTT) against H460 tumor cell line. The class given is cell-based, human.

Description for A549 cells: as §1
Description for H460 cells: as §1

For the substance “(1E,6E)-1-(4-Hydroxy-3-methoxyphenyl)-7-(4-hydroxyphenyl)hepta-1,6-dien-3,5-dione [Compound 2, reference compound]”, in data set [1], the “PBMC LD50” value was determined as 144.3 ± 12.30 µM. The half-inhibitory concentration (IC50) came to 31.3 ± 0.77 µM in data set [2] (120 h, in LLC-MK2 host cells); 73.3 ± 6.98 µM in the data set with A549 cells (72 h, MTT, read-out: A549 IC50); 22.7 ± 3.71 µM in the data set with LLC-MK2 (host cells); 25.1 ± 5.55 µM with H460 cells (72 h, MTT, read-out: H460 IC50). Besides, the “Selective Index” value in data set [2] (LLC-MK2 IC50 vs T. cruzi amastigote IC50) came out at 0.72. In addition, the “Selective Index SI A549” value in the data set with A549 cells (PBMC LD50 vs A549 IC50) turned out to be 1.96. Also, the “Selective Index SI H460” value in the data set with H460 cells (PBMC LD50 vs H460 IC50) amounted to 5.76.

Source of the values: article PMC12030033, “Design and Synthesis of Bis-Chalcones as Curcumin Simplified Analogs and Assessment of Their Antiproliferative Activities Against Human Lung Cancer Cells and Trypanosoma cruzi Amastigotes” (Pharmaceuticals, 2025).
